Measurements: US10117871B2, “3-hydroxypyrimidine-2,4-dione-5-carboxamides as potent inhibitors of HIV” (Regents of the University of Minnesota, priority 2015, dated 2018)
Read-outs that look alike come from different tables or passages of the source.

What was measured:
HIV-1 integrase = target: T1, HIV-1 integrase (Human immunodeficiency virus type 1 group M subtype B, UniProt P04585); test: HIV-1 integrase strand transfer (INST) assay; assay type: biochemical
T1 construct: HIV integrase was expressed and purified as previously reported; made in house; host or cells: Escherichia coli
Description: HIV integrase was expressed and purified as previously reported.^43 Inhibition assays were performed using a modified protocol of a reported method.^43 Briefly, 2.1 μL of compound suspended in DMSO was placed in duplicate into a Black 96 well non-binding plate (coming 3991). Compounds were plated in duplicate to a final concentration of 0.13-100 μM. To each well of the plate 186.9 μL of reaction mixture without DNA substrate was added (10 mM HEPES pH 7.5, 10% glycerol w/v, 10 mM MnCl2, 1 mM DTT, 1 μM integrase). The enzyme was incubated with inhibitor for 10 min at 25° C. after which the reaction was initiated by the addition of 21 μL of 500 nM oligo (5′ biotin […] annealed with […] 3′ Cy5). Reactions were incubated at 37° C. for 30 min and then quenched by the addition of 5.2 μL 500 mM EDTA. Each reaction was moved (200 μL) to a MultiScreen HTS PCR plate (Millipore MSSLBPC10) containing 20 μL streptavidin agarose beads (Life Technologies S951) and incubated with shaking for 30 min. A vacuum manifold was used to remove the reaction mixture and the beads were similarly washed 3 times with wash buffer (0.05% SDS, 1 mM EDTA in PBS). The plates were further washed 3 times with 200 μL 50 mM NaOH to denature DNA not covalently linked to the biotin modification. For each denaturation step the plate was incubated with shaking at 25° C. for 5 min and the NaOH was removed by centrifugation at 1000 g for 1 min. The reaction products were eluted from the beads by the addition of 150 μL formamide. The plate was incubated at 25° C. for 10 min and read directly at 635/675 in a SpectraMax i3 plate reader (Molecular Devices). Expression and purification of the recombinant IN in Escherichia coli were performed as previously reported^39, 44 with addition of 10% glycerol to all buffers. Preparation of oligonucleotide substrates has been described.^45 Integrase reactions were performed in 10 μL with 400 nM of recombinant IN, 20 nM of 5′-end [^32P]-labeled oligonucleotide substrate and inhibitors at various concentrations. Solutions of 10% DMSO without inhibitors were used as controls. Reactions were incubated at 37° C. (60 minutes) in buffer containing 50 mM MOPS, pH 7.2, 7.5 mM MgCl2, and 14.3 mM 2-mercaptoethanol. Reactions were stopped by addition of 10 μL of loading dye (10 mM EDTA, 98% deionized formamide, 0.025% xylene cyanol and 0.025% bromophenol blue). Reactions were then subjected to electrophoresis in 20% polyacrylamide-7 M urea gels. Gels were dried and reaction products were visualized and quantitated with a Typhoon 8600 (GE Healthcare, Little Chalfont, Buckinghamshire, UK). Densitometric analyses were performed using ImageQuant from Molecular Dynamics Inc. The concentrations at which enzyme activity was reduced by 50% (IC50) were determined using “Prism” software (GraphPad Software, San Diego, Calif.) for nonlinear regression to fit dose-response data to logistic curve models.

HIV-1IIIB = test: HIV-1 cytoprotection (CPE reduction) antiviral assay; assay type: cell-based; settings: for inhibition at 10 µM: read-out: CPE reduction %
Description: (§1) The antiviral activity of newly synthesized analogues of chemotype 7 was evaluated against HIV-1IIIB in CEM-SS cells using an assay based on viral cytopathic effect (CPE). In this assay, the reduction of CPE was used to indicate the antiviral activity of a compound.
Briefly virus and cells were mixed in the presence of test compound and incubated for 6 days. […] Each assay plate contained cell control wells (cells only), virus control wells (cells plus virus), compound toxicity control wells (cells plus compound only), compound colorimetric control wells (compound only) as well as experimental wells (compound plus cells plus virus). Cytoprotection and compound cytotoxicity were assessed by MTS (CellTiter® 96 Reagent, Promega, Madison Wis.) and the EC50 (concentration inhibiting virus replication by 50%), CC50 (concentration resulting in 50% cell death) and a calculated TI (therapeutic index CC50/EC50) were provided. Each assay included AZT as a positive control.

CEM-SS cells = test: Compound cytotoxicity (MTS) in the HIV cytoprotection assay; assay type: cell-based; settings: for Cell viability %: 10 μM, CEM-SS cells
Description: as §1
(§2) Briefly virus and cells were mixed in the presence of test compound and incubated for 6 days. […] Each assay plate contained cell control wells (cells only), virus control wells (cells plus virus), compound toxicity control wells (cells plus compound only), compound colorimetric control wells (compound only) as well as experimental wells (compound plus cells plus virus). […] Each assay included AZT as a positive control.

[1] = as above; assay type: cell-based; settings: human
Description: as §1, §2

[2] = Aqueous stability in DPBS; assay type: physicochemical; settings: DPBS (37° C.) over a 24 h period
Description: To assess drug-like properties of chemotype 7, selected analogues were tested in various in vitro ADME studies (Table 5). Aqueous stability and solubility were evaluated in Dulbecco's Phosphate-Buffered Saline (DPBS). […] Assessment of plasma and microsomal stability as well as plasma protein binding was done in two species, human and mouse. […] Microsomal stability of the compounds were evaluated in liver microsomes using either NADPH (phase I) or UDPGA (phase II) as cofactor.

| Compound | IC50 (HIV-1 integrase; read-out: IC50 (ST)) [nM] | IC50 (HIV-1 integrase; read-out: INST IC50) [nM] | inhibition at 10 µM (HIV-1IIIB; Human immunodeficiency virus 1, CEM-SS) [%] | EC50 (HIV-1IIIB; Human immunodeficiency virus 1, Concentration inhibiting virus replication by 50%, dose response, read-out: EC50) [nM] | EC50 (HIV-1IIIB; Human immunodeficiency virus 1, summary of Table 2, read-out: EC50) [nM] | Cell viability % (CEM-SS cells) [%] | CC50 at 6 days [1] [nM] | EC50 (HIV-1IIIB; Human immunodeficiency virus 1) [nM] | inhibition at 10 µM (HIV-1IIIB; Human immunodeficiency virus 1, 10 μM, HIV-1IIIB in CEM-SS cells) [%] | remaining in DPBS [2] [%] | CC50 (CEM-SS cells; Concentration resulting in 50% cell death) [nM] |
| --- | --- | --- | --- | --- | --- | --- | --- | --- | --- | --- | --- |
| CCNc1[nH]c(=O)n(O)c(=O)c1C(=O)NCc1cc(F)ccc1F [Compound 7-xvii, N-(2,5-Difluorobenzyl)-1-(hydroxy)-4-(ethylamino)-1,2,3,6-tetrahydro-2,6-dioxopyrimidine-5-carboxamide] | 21 to 77 | 68 ± 11 | 100 | 32 | 15 to 61 | 92 | 47000 |  |  |  |  |
| CCNc1[nH]c(=O)n(O)c(=O)c1C(=O)NCc1ccc(Cl)c(F)c1 [Compound 7-xxii, N-(4-Chloro-3-fluorobenzyl)-1-(hydroxy)-4-(ethylamino)-1,2,3,6-tetrahydro-2,6-dioxopyrimidine-5-carboxamide] |  | 120 ± 21 |  |  |  | 100 |  | 190 | 100 | 86 | 19000 |
